# Experimental data reported in PubChem BioAssay AID328 (DTP/NCI, 2004).
# Several values for one entry are separate records, joined by “and”; a condition that tells them apart may be missing. Identical values can stand only once. Inconclusive results and toxic doses are left out.
# Test system: BDF1 mice, P388 leukemia ip, median survival T/C
# Assay: NCI In Vivo Anticancer Drug Screen. Data for tumor model P388 Leukemia (intraperitoneal) in B6D2F1 (BDF1) mice
# Details: endpoint: median survival time, higher = longer survival
# How it was run: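 Antitumour effect was judged in vivo: survival in drug-treated mice, normalised to that of vehicle-dosed controls, gives the reported T/C.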
# [1] = dose: 100.0 mg/kg/injection, schedule: Q01DX009 (ip), vehicle: Klucel (hydroxypropylcellulose) (HPC)
# [2] = dose: 200.0 mg/kg/injection, schedule: Q01DX009 (ip), vehicle: Klucel (hydroxypropylcellulose) (HPC)
# [3] = dose: 6.25 mg/kg/injection, schedule: Q01DX009 (ip), vehicle: saline
# [4] = dose: 12.5 mg/kg/injection, schedule: Q01DX009 (ip), vehicle: saline
# [5] = dose: 50.0 mg/kg/injection, schedule: Q01DX009 (ip), vehicle: saline with Tween-80
# [6] = dose: 50.0 mg/kg/injection, schedule: Q01DX009 (ip), vehicle: saline
# [7] = dose: 100.0 mg/kg/injection, schedule: Q01DX009 (ip), vehicle: saline
# [8] = dose: 200.0 mg/kg/injection, schedule: Q01DX009 (ip), vehicle: saline
# [9] = dose: 400.0 mg/kg/injection, schedule: Q04DX003 (ip), vehicle: saline
# [10] = dose: 100.0 mg/kg/injection, schedule: Q04DX003 (ip), vehicle: saline
structure (smiles),measurement,setting,value
CCC12C=CCN3CCC4(c5ccc(OC)cc5N(C)C4C(O)(C(=O)OC)C1OC(C)=O)C32 (stereo not drawn) (tested in a mixture with another compound),T/C,"dose: 0.06 mg/kg/injection, schedule: Q01DX009 (ip), vehicle: water",86 % of control and 95 % of control
same,T/C,"dose: 0.12 mg/kg/injection, schedule: Q01DX009 (ip), vehicle: water",90 % of control
same,T/C,"dose: 0.25 mg/kg/injection, schedule: Q01DX009 (ip), vehicle: water",86 % of control and 104 % of control
same,T/C,"dose: 0.5 mg/kg/injection, schedule: Q01DX009 (ip), vehicle: water",90 % of control
same,T/C,"dose: 1.0 mg/kg/injection, schedule: Q01DX009 (ip), vehicle: water",86 % of control and 90 % of control
same,T/C,"dose: 2.0 mg/kg/injection, schedule: Q01DX009 (ip), vehicle: water",100 % of control and 90 % of control
CCOC(=O)CCSC(C)(C)C(=O)OCC,T/C,[1],100 % of control
same,T/C,"dose: 100.0 mg/kg/injection, schedule: Q04DX003 (ip), vehicle: Klucel (hydroxypropylcellulose) (HPC)",104 % of control
same,T/C,[2],105 % of control
same,T/C,"dose: 200.0 mg/kg/injection, schedule: Q04DX003 (ip), vehicle: Klucel (hydroxypropylcellulose) (HPC)",104 % of control
same,T/C,"dose: 400.0 mg/kg/injection, schedule: Q01DX009 (ip), vehicle: Klucel (hydroxypropylcellulose) (HPC)",105 % of control
same,T/C,"dose: 400.0 mg/kg/injection, schedule: Q04DX003 (ip), vehicle: Klucel (hydroxypropylcellulose) (HPC)",100 % of control
CCCCOCN(COCCCC)C(C)(C)C,T/C,"dose: 100.0 mg/kg/injection, schedule: Q01DX001 (ip), vehicle: saline",120 % of control
same,T/C,"dose: 200.0 mg/kg/injection, schedule: Q01DX001 (ip), vehicle: saline",110 % of control
NCCNCC[OH2+].NCCNCC[OH2+].O=S(=O)([O-])[O-].[Cu+2],T/C,[3],105 % of control
same,T/C,[4],108 % of control
same,T/C,"dose: 25.0 mg/kg/injection, schedule: Q01DX009 (ip), vehicle: saline",103 % of control
CC(=O)OC1C=CCC2C(=O)C3=C(C(=O)c4ccccc4C3=O)C(=O)C12 (stereo not drawn),T/C,"dose: 3.12 mg/kg/injection, schedule: Q01DX009 (ip), vehicle: saline with Tween-80",98 % of control
same,T/C,"dose: 6.25 mg/kg/injection, schedule: Q01DX009 (ip), vehicle: saline with Tween-80",98 % of control
same,T/C,"dose: 12.5 mg/kg/injection, schedule: Q01DX009 (ip), vehicle: saline with Tween-80",107 % of control
same,T/C,"dose: 25.0 mg/kg/injection, schedule: Q01DX009 (ip), vehicle: saline with Tween-80",112 % of control
same,T/C,[5],112 % of control
Cc1ccc(/C=C2\NC(=O)NC2=O)cc1,T/C,"dose: 25.0 mg/kg/injection, schedule: Q01DX009 (ip), vehicle: water",106 % of control
same,T/C,"dose: 50.0 mg/kg/injection, schedule: Q01DX009 (ip), vehicle: water",106 % of control
same,T/C,"dose: 50.0 mg/kg/injection, schedule: Q04DX003 (ip), vehicle: water",94 % of control
same,T/C,"dose: 100.0 mg/kg/injection, schedule: Q01DX009 (ip), vehicle: water",95 % of control
same,T/C,"dose: 100.0 mg/kg/injection, schedule: Q04DX003 (ip), vehicle: water",106 % of control
same,T/C,"dose: 200.0 mg/kg/injection, schedule: Q01DX009 (ip), vehicle: water",98 % of control
same,T/C,"dose: 200.0 mg/kg/injection, schedule: Q04DX003 (ip), vehicle: water",103 % of control
same,T/C,"dose: 400.0 mg/kg/injection, schedule: Q01DX009 (ip), vehicle: water",94 % of control
same,T/C,"dose: 400.0 mg/kg/injection, schedule: Q04DX003 (ip), vehicle: water",97 % of control
N#C/C(=C\c1cc(Cl)cc(Cl)c1O)c1nc2ccccc2[nH]1,T/C,[5],93 % of control
same,T/C,"dose: 100.0 mg/kg/injection, schedule: Q01DX009 (ip), vehicle: saline with Tween-80",93 % of control
CC(C)OC(=O)C1(N)CCCC1,T/C,[6],109 % of control
same,T/C,[7],109 % of control
same,T/C,[8],86 % of control
same,T/C,"dose: 400.0 mg/kg/injection, schedule: Q04DX003 (ip), vehicle: saline with Tween-80",113 % of control
same,T/C,[9],116 % of control
same,T/C,"dose: 600.0 mg/kg/injection, schedule: Q04DX003 (ip), vehicle: saline with Tween-80",86 % of control
same,T/C,"dose: 600.0 mg/kg/injection, schedule: Q04DX003 (ip), vehicle: saline",91 % of control
O=C1SCCC1CO (stereo not drawn),T/C,"dose: 100.0 mg/kg/injection, schedule: Q04DX003 (ip), vehicle: saline with Tween-80",114 % of control
O=C(NC(CSC(c1ccccc1)(c1ccccc1)c1ccccc1)C(=O)O)OCc1ccccc1 (stereo not drawn),T/C,[6],100 % of control and 110 % of control
same,T/C,[7],122 % of control
same,T/C,[10],100 % of control
same,T/C,[8],118 % of control
same,T/C,"dose: 200.0 mg/kg/injection, schedule: Q04DX003 (ip), vehicle: saline",104 % of control
same,T/C,[9],100 % of control
CCOC(=O)C1(c2ccccc2)CCCN(C)CC1 (stereo not drawn),T/C,[10],94 % of control
CCN1CC[N+](C)(CC)Cc2ccccc21 (stereo not drawn),T/C,"dose: 12.5 mg/kg/injection, schedule: Q04DX003 (ip), vehicle: saline with Tween-80",90 % of control
same,T/C,"dose: 25.0 mg/kg/injection, schedule: Q04DX003 (ip), vehicle: saline with Tween-80",93 % of control
CCN(CC)CCCOC(=O)/C=C/c1c(C)[nH]c(=O)[nH]c1=O,T/C,"dose: 25.0 mg/kg/injection, schedule: Q04DX003 (ip), vehicle: saline",104 % of control
same,T/C,"dose: 50.0 mg/kg/injection, schedule: Q04DX003 (ip), vehicle: saline",117 % of control
same,T/C,[10],90 % of control
C=CC(=O)c1c(O)cc(O)c2c1C(C)C(=O)O2 (stereo not drawn),T/C,"dose: 75.0 mg/kg/injection, schedule: Q01DX009 (ip), vehicle: Klucel (hydroxypropylcellulose) (HPC)",113 % of control
CC[N+]1(CC)CCOC(=O)C1,T/C,[7],92 % of control
same,T/C,[8],92 % of control
same,T/C,"dose: 400.0 mg/kg/injection, schedule: Q01DX009 (ip), vehicle: saline",92 % of control
O=C1NC2(CCCCC2)C(=O)N1CCN(CCCl)CCCl,T/C,"dose: 0.39 mg/kg/injection, schedule: Q01DX009 (ip), vehicle: saline",196 % of control
same,T/C,"dose: 0.78 mg/kg/injection, schedule: Q01DX009 (ip), vehicle: saline",189 % of control
same,T/C,"dose: 1.56 mg/kg/injection, schedule: Q01DX009 (ip), vehicle: saline",222 % of control
same,T/C,"dose: 3.12 mg/kg/injection, schedule: Q01DX009 (ip), vehicle: saline",291 % of control
same,T/C,[3],291 % of control
same,T/C,[4],120 % of control
COc1ccc(C(=S)N(C)NC(=O)CC(=O)NN(C)C(=S)c2ccc(OC)cc2)cc1,T/C,"dose: 25.0 mg/kg/injection, schedule: Q01DX009 (ip), vehicle: Klucel (hydroxypropylcellulose) (HPC)",100 % of control
same,T/C,"dose: 50.0 mg/kg/injection, schedule: Q01DX009 (ip), vehicle: Klucel (hydroxypropylcellulose) (HPC)",102 % of control
same,T/C,[1],89 % of control
same,T/C,[2],100 % of control
CC1(C)N=C(N)N=C(N)N1c1cccc(CCCCc2ccc(Cl)c(S(=O)(=O)F)c2)c1,T/C,"dose: 1.8 mg/kg/injection, schedule: Q01DX009 (ip), vehicle: saline",100 % of control
same,T/C,"dose: 3.13 mg/kg/injection, schedule: Q01DX009 (ip), vehicle: saline",112 % of control
same,T/C,"dose: 4.0 mg/kg/injection, schedule: Q01DX009 (ip), vehicle: saline",114 % of control
same,T/C,"dose: 6.0 mg/kg/injection, schedule: Q01DX009 (ip), vehicle: saline",122 % of control
same,T/C,"dose: 7.0 mg/kg/injection, schedule: Q04DX003 (ip), vehicle: saline",109 % of control
same,T/C,"dose: 9.0 mg/kg/injection, schedule: Q01DX009 (ip), vehicle: saline",107 % of control
same,T/C,[4],120 % of control
same,T/C,"dose: 14.0 mg/kg/injection, schedule: Q01DX009 (ip), vehicle: saline",150 % of control
same,T/C,"dose: 14.0 mg/kg/injection, schedule: Q04DX003 (ip), vehicle: saline",118 % of control
same,T/C,"dose: 28.0 mg/kg/injection, schedule: Q04DX003 (ip), vehicle: saline",118 % of control
same,T/C,"dose: 56.0 mg/kg/injection, schedule: Q04DX003 (ip), vehicle: saline",104 % of control
O=C(O)c1ccccc1CBr,T/C,"dose: 100.0 mg/kg/injection, schedule: Q04DX003 (ip), vehicle: saline sonified",104 % of control
same,T/C,"dose: 200.0 mg/kg/injection, schedule: Q04DX003 (ip), vehicle: saline sonified",104 % of control
same,T/C,"dose: 400.0 mg/kg/injection, schedule: Q04DX003 (ip), vehicle: saline sonified",100 % of control
CC(C)Cn1c(Cl)c(/C=N\Nc2ccccc2[N+](=O)[O-])c2ccccc21,T/C,"dose: 100.0 mg/kg/injection, schedule: Q04DX002 (ip), vehicle: Klucel (hydroxypropylcellulose) (HPC)",92 % of control
same,T/C,"dose: 200.0 mg/kg/injection, schedule: Q04DX002 (ip), vehicle: Klucel (hydroxypropylcellulose) (HPC)",99 % of control
